Test systems include HOP-62 NSCLC; SR leukemia; A549 NSCLC; SW-620 colon; SK-MEL-28 melanoma; SNB-75 CNS; EKVX NSCLC; OVCAR-5 ovarian; U251 CNS; MDA-MB-231 breast.
Assay in all cases: DTP human tumour cell line panel, 48 h

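Following 48 hours of exposure in 96-well plates, responses at five concentrations were used to interpolate endpoints linearly. GI50 is the concentration that inhibits growth by half. At the TGI there is no net growth.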 Some results are limits rather than exact numbers.

Regarding `COc1ccc(C(=O)c2ccc(OC)c(OC)c2OC)cc1`, the GI50 in the test with HOP-62 NSCLC is 2.39 µM; in the test on SR leukemia, 0.347 µM; with A549 NSCLC, 2.01 µM; in the test on SW-620 colon, 0.377 µM; in the test with SK-MEL-28 melanoma it was 4.51 µM; in the test with SNB-75 CNS, 1.76 µM. Besides, the GI50 with EKVX NSCLC was 4.77 µM; in the test on OVCAR-5 ovarian, 8.52 µM; in the test with U251 CNS, 0.725 µM; in the test with MDA-MB-231 breast, 3.63 µM. Besides, the TGI in the test on HOP-62 NSCLC, in the test with SR leukemia, with A549 NSCLC, in the test with SW-620 colon, in the test with SK-MEL-28 melanoma and with SNB-75 CNS was over 100 µM throughout. The TGI in the test on EKVX NSCLC, in the test with OVCAR-5 ovarian, in the test on U251 CNS and in the test with MDA-MB-231 breast was over 100 µM in each case.
In the case of `COc1ccccc1-n1c(-c2cc(O)ccc2C)cn2c3c(=O)[nH]c(=O)n(C)c3nc12`, the GI50 is 7.74 µM in the test on HOP-62 NSCLC; 66 µM in the test with SR leukemia; 17.4 µM in the test with A549 NSCLC; over 100 µM in the test with SW-620 colon; over 100 µM in the test with SK-MEL-28 melanoma; 0.129 µM in the test with SNB-75 CNS. For the same compound, the GI50 in the test with EKVX NSCLC is 10.1 µM; in the test on OVCAR-5 ovarian, 28.1 µM; in the test with U251 CNS, 22.2 µM; in the test with MDA-MB-231 breast, 3.06 µM. Also, the TGI in the test on HOP-62 NSCLC is over 100 µM; with SR leukemia, over 100 µM; with A549 NSCLC, over 100 µM; in the test on SW-620 colon, over 100 µM; with SK-MEL-28 melanoma, over 100 µM; in the test on SNB-75 CNS it was 1.12 µM. Besides, the TGI in the test on EKVX NSCLC, in the test with OVCAR-5 ovarian, with U251 CNS and in the test on MDA-MB-231 breast was over 100 µM throughout.
Turning to `O=C(OCc1ccccc1)N1CCN(/[N+]([O-])=N/Oc2ccc([N+](=O)[O-])cc2[N+](=O)[O-])CC1`, the GI50 with HOP-62 NSCLC is 12.3 µM; in the test on SR leukemia, 4.7 µM; in the test with A549 NSCLC, 21.5 µM; with SW-620 colon it was 3.79 µM; in the test with SK-MEL-28 melanoma it was 13.2 µM; with SNB-75 CNS it was 15.6 µM. Also, the GI50 in the test with EKVX NSCLC was 16.7 µM; in the test on OVCAR-5 ovarian, 6.43 µM; with U251 CNS, 4.85 µM; in the test with MDA-MB-231 breast, 3.58 µM. Also, the TGI in the test with HOP-62 NSCLC was 28 µM; with SR leukemia it was over 100 µM; in the test on A549 NSCLC it was 56 µM; with SW-620 colon, over 100 µM; in the test on SK-MEL-28 melanoma, 31.1 µM; in the test on SNB-75 CNS it was 32.7 µM. The TGI with EKVX NSCLC came to 35 µM; in the test on OVCAR-5 ovarian, 67.6 µM; with U251 CNS, 27.1 µM; in the test with MDA-MB-231 breast, 9.48 µM.
On to `C1CCN(CCC2CCCCN2)CC1` (stereo unspecified), for which the TGI in the test on HOP-62 NSCLC, in the test on SR leukemia, in the test with A549 NSCLC, in the test on SW-620 colon, with SK-MEL-28 melanoma and in the test on SNB-75 CNS was over 100 µM throughout. The TGI with EKVX NSCLC, with OVCAR-5 ovarian, in the test on U251 CNS and with MDA-MB-231 breast was over 100 µM each time.
For `CN(C)c1ccc(/C=C(/NC(=O)c2ccccc2)c2nc3ccc(Cl)cc3[nH]2)cc1`, the TGI in the test with HOP-62 NSCLC was over 100 µM; in the test on SR leukemia, over 89.4 µM; with A549 NSCLC, over 100 µM; in the test on SW-620 colon, over 60.5 µM; in the test on SK-MEL-28 melanoma, over 100 µM; with SNB-75 CNS, over 91.3 µM. The TGI is over 100 µM in the test with EKVX NSCLC, 97.5 µM in the test on OVCAR-5 ovarian, over 100 µM with U251 CNS and over 95.3 µM in the test on MDA-MB-231 breast. In addition, in the test on MDA-MB-231 breast, the GI50 is 28.4 µM.
Consider `CCn1c2c(n(CC)c1=S)-c1c(n(CC)c(=S)n1CC)SSSS2`, for which the TGI in the test with HOP-62 NSCLC is over 100 µM; in the test with SR leukemia, 9.17 µM; in the test with A549 NSCLC, 68.4 µM; in the test with SW-620 colon, 3.29 µM; in the test on SK-MEL-28 melanoma it was 18.7 µM; with SNB-75 CNS it was 26.6 µM. Besides, the TGI with EKVX NSCLC came to 21.4 µM; in the test on OVCAR-5 ovarian, 27.8 µM; in the test on U251 CNS it was 45.5 µM; with MDA-MB-231 breast it was 10 µM.
As to `C=C(C)[C@@H]1CC[C@]2(C)[C@H](C(=O)C=C3[C@@H]4C[C@](C)(C(=O)N5CCN(C)CC5)CC[C@]4(C)CC[C@]32C)[C@@]1(C)CCC#N`, the GI50 in the test on HOP-62 NSCLC is 6.33 µM; in the test with SR leukemia, 1.78 µM; in the test on A549 NSCLC, 7.12 µM; with SW-620 colon it was 6.99 µM; in the test with SK-MEL-28 melanoma, 7.23 µM; in the test with SNB-75 CNS, 7.52 µM. For the same compound, the GI50 in the test with EKVX NSCLC was 7.24 µM; in the test on OVCAR-5 ovarian, 7.01 µM; in the test with U251 CNS it was 6.05 µM; in the test on MDA-MB-231 breast, 7.58 µM. In addition, the TGI in the test on HOP-62 NSCLC came out at 13.3 µM; in the test with SR leukemia, 9.07 µM; in the test with A549 NSCLC it was 14.5 µM; in the test on SW-620 colon, 14.9 µM; in the test on SK-MEL-28 melanoma, 13.8 µM; with SNB-75 CNS it was 15.8 µM. Further, the TGI with EKVX NSCLC stood at 14 µM; in the test on OVCAR-5 ovarian it was 13.6 µM; in the test on U251 CNS, 12.7 µM; in the test with MDA-MB-231 breast, 14.6 µM.
Take `CCCCCCCCCCCCCCCCCC1=NCCN1CS(=O)(=O)O`: the GI50 in the test on HOP-62 NSCLC is 14.1 µM; in the test on SR leukemia, 7.85 µM; in the test with A549 NSCLC, 12.5 µM; with SW-620 colon, 7.19 µM; with SK-MEL-28 melanoma, 19.2 µM; in the test with SNB-75 CNS it was 17.2 µM. Also, the GI50 with EKVX NSCLC was 11.4 µM; with OVCAR-5 ovarian, 15.4 µM; with U251 CNS, 9.54 µM; in the test with MDA-MB-231 breast it was 9.34 µM. Also, the TGI with HOP-62 NSCLC is 31.4 µM; in the test on SR leukemia it was over 100 µM; with A549 NSCLC it was 31.2 µM; with SW-620 colon, 31.2 µM; in the test with SK-MEL-28 melanoma it was 34.7 µM; in the test on SNB-75 CNS, 44.9 µM. The TGI amounted to 25 µM in the test with EKVX NSCLC, 32.7 µM with OVCAR-5 ovarian, 29 µM with U251 CNS and 23.7 µM with MDA-MB-231 breast.

For the origin of these results see PubChem BioAssay (NCI).
